For series [1], the system named is Adult male cynomolgus monkeys. As to the kind of experiment: Acute airway inflammation in the atopic primate (A. suum antigen challenge, bronchoalveolar lavage cell counts). To be noted: p.o., 2 hours prior to A. suum antigen challenge; lavage at 24 hour after challenge; relative to vehicle treated control animals. It counts as in vivo, Macaca fascicularis. As for the experimental part: Acute airway inflammation in the atopic primate.
Airway inflammation in the monkey was determined using a modification of the protocol described by Turner et al. (Turner et al., 1994). Adult male cynomolgus monkeys (Macaca fascicularis, Hazelton Labs, Denver, Pa.) weighing between 3.6-5.8 kg were used in these studies.
On the day of each experiment the animals were anesthetized with ketamine hydrochloride, 12 mg/kg, and xylazine, 0.5 mg/kg, intubated with a cuffed endotracheal tube (3 mm, Mallinckrodt Medical, St. Louis, Mo.), then seated in an upright position in a specially designed Plexiglass chair (Plas-Labs, Lansing, Mich.). The endotracheal tube was connected to a heated Fleisch pneumotachograph. Airflow was measured via a Validyn differential pressure transducer (DP 45-24) that was attached to the pneumotachograph. Transpulmonary pressure was measured via a second Validyne transducer (DP 45-24) connected between a sidearm of the tracheal cannula and a 18-gauge intrapleural needle inserted in the intercostal space located below the left nipple. […]
Airway inflammation was induced by exposing the animal to an aerosol of A. Suum extract for 60 sec. […] Airway inflammation was assessed by inserting a pediatric bronchoscope into the airway lumen down to about the 4 or 5th generation bronchi and gently lavaging with 3 ×2 ml aliquots of sterile Hanks Balanced Salt Solution. […]

SMILES strings stand for the structures.

In turn, `Cc1cccc(Cl)c1C(=O)N[C@H](CO)Cc1ccc(NC(=O)c2c(Cl)cccc2Cl)cc1` [Example 1, 4-[[(2,6-dichlorophenyl)carbonyl]amino]-N-[(2-chloro-6-methylphenyl)carbonyl]-L-phenylalaninol] yielded a melting point of 198 to 200 °C. Further, in series [1], the “number of inflammatory cells present in the lavage fluid” value was “significant decrease” and the “percent of inflammatory cells present in the lavage fluid” value was “significant decrease”.
